Data as given in publication PMC4013053, “Identification of Selective Small Molecule Inhibitors of the Nucleotide-Binding Oligomerization Domain 1 (NOD1) Signaling Pathway” (PLoS ONE, 2014).
≈ marks a conversion by molar mass, not a printed value. Read-outs that look alike come from different tables or passages of the source. Values belong to the molecule of their own block, whether it stands above or below them.

What was measured:
NOD1 [1] = tested on: NOD1; design: method as in PMID 22062585; conditions: read-out: NOD1 IC50 (nucleotide binding); cited from earlier work
NOD2 = tested on: NOD2; design: method as in PMID 22549783; conditions: read-out: NOD2 IC50 (nucleotide binding); cited from earlier work
NOD1 [2] = biological target: T1, NOD1 (Homo sapiens, UniProt Q9Y239); assay: iE-DAP-stimulated IL-8 release in 293/hNOD1 cells; format: cell-based
T1 sequence (Q9Y239 1-953): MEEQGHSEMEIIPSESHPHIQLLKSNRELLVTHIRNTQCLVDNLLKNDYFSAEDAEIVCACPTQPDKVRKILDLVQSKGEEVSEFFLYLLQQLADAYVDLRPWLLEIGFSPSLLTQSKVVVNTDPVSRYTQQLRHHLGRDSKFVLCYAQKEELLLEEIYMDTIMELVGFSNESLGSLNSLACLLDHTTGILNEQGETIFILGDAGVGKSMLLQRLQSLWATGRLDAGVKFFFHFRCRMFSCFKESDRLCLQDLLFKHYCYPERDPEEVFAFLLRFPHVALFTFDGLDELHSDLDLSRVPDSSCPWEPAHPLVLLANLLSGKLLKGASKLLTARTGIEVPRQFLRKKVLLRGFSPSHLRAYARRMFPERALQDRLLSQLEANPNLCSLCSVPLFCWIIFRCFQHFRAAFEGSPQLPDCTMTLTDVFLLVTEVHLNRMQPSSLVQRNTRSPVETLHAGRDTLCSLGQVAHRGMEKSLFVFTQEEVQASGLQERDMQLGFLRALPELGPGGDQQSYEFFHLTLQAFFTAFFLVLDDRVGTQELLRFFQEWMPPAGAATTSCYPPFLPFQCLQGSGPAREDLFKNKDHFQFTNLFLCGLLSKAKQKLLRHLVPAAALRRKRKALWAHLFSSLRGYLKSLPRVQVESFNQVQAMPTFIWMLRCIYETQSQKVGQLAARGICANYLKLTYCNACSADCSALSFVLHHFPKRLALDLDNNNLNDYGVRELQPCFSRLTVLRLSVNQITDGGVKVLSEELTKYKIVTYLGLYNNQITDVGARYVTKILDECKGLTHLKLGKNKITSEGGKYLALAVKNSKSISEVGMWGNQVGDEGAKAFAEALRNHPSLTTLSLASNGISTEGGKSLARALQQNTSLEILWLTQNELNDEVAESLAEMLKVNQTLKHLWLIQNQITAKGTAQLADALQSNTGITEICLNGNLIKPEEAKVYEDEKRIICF
Experimental: Inhibitors of iE-DAP-stimulated IL-8 release were screened in a 1536-well assay in which 293/hNOD1 cells (5000 cells/well) in DMEM high glucose medium supplemented with 0.1% FBS and 10 µg/mL Blasticidin S were stimulated with 60 ng/mL (200 nM) iE-DAP (EC80) in the presence of 10 µM compounds. After 24 hours the amount of IL-8 secreted into the medium was determined by homogeneous time resolved fluorescence (HTRF) assay by the direct addition of a 1∶1 mix of europium cryptate and XL665-conjugated anti-IL-8 antibodies according to the manufacturer’s instructions (Cisbio). Fluorescence was measured after 2 hours in a ViewLux imager using UMB-AMC excitation and 618–671 nm emission filters (Perkin Elmer). […] Inhibition of TNFR1-induced IL-8 release was performed with 293/hNOD1 cells stimulated with 20 ng/mL (∼EC95) rhTNFα.
A high-throughput screen of about 2.2 million compounds was conducted for inhibitors of the NOD1 signaling pathway using suppression of iE-DAP stimulated IL-8 secretion in HEK293 cells stably expressing human NOD1 (293/hNOD1 cells). […] These assays were chosen to assess the selectivity of hits because the signaling pathways activated by these receptors converge at the level of the TAB/TAK1/IKK complex.

CLND solubility = format: physicochemical; conditions: phosphate buffered saline with 5% DMSO, pH 7.4, aqueous buffer, kinetic from dmso stock; 5% DMSO pH7.4 phosphate buffered saline
Text: (§1) Physicochemical analyses of compounds were completed at GSK.

[3] = Chromatographic hydrophobicity index (Chrom log D); format: physicochemical; conditions: pH 7.4
Text: as §1

[4] = Permeability across an artificial membrane; format: in vitro ADME; conditions: PAMPA
Text: as §1

human serum albumin = human serum albumin (Homo sapiens, UniProt P02768); assay: Human serum albumin (HSA) binding; format: in vitro ADME
human serum albumin, sequence (P02768 25-609): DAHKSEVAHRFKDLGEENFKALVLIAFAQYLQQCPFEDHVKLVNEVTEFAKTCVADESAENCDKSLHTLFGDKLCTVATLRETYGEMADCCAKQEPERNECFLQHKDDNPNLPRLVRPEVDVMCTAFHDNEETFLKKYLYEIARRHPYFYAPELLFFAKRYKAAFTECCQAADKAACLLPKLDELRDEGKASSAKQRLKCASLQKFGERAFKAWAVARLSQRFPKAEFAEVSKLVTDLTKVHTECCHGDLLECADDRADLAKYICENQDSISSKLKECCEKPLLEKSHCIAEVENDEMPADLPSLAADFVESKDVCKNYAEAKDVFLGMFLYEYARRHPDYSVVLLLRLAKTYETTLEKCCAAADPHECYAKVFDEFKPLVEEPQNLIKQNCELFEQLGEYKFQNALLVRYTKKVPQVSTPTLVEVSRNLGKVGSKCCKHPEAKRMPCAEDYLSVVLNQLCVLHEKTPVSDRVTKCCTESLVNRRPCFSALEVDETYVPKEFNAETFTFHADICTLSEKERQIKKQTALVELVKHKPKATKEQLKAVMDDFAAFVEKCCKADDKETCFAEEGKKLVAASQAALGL
Text: as §1

α1-acid glycoprotein = α1-acid glycoprotein (AGP) binding; format: in vitro ADME
Text: as §1

[5] = Immobilized artificial membrane (IAM) binding; format: physicochemical
Text: as §1

[6] = tested on: NOD1 induced NF-κB and MAPK pathways; assay: Western blotting of IκBα and phospho-MAPKs in Tri-DAP stimulated 293/hNOD1 cells; format: cell-based, human; conditions: 50 µg/mL Tri-DAP 1 hour, immunoblotting
Experimental: Confluent cultures of 293/hNOD1 and -hNOD2 cells seeded in 24-well plates were serum-starved over-night, pre-incubated for 1 hour with compound and then stimulated for 1 hour with either 50 µg/mL Tri-DAP or 25 µg/mL MDP, respectively. Whole cell lysates were prepared in 1X cell lysis buffer (Cell Signaling Technology) supplemented with additional protease, aminopeptidase and phosphatase inhibitors (protease inhibitor cocktail set III, EMD Biosciences; phosphatase inhibitor sets II and III, Sigma-Aldrich). The levels of phosphorylated and total p38, JNK, ERK1/2 and total IκBα were determined by immunoblotting of ∼20 µg protein per sample using the following primary antibodies: phospho-p38 MAPK (12F8, #4631), p38 MAPK (#9212), phospho-JNK (#9251), JNK (#9252) and IκBα (#9242) all purchased from Cell Signaling Technology, and phospho-ERK1/2 (sc-7383) and ERK1/2 (sc-94) antibodies from Santa Cruz Biotechnology.

NOD1 [7] = conditions: HEK293T cells, read-out: IC50 NF-κB reporter, cited from earlier work
[8] = iE-DAP-stimulated IL-8 production in 293/hNOD1 cells, SAR figures, read-out: NOD1 XC50
[9] = HEK293 stably expressing human NOD1, IL-8 released into medium, read-out: IC50 293/hNOD1 iE-DAP

SMILES: Nc1ncnc2c1ncn2[C@@H]1O[C@H](COP(=O)(O)OP(=O)(O)OP(=O)(O)O)[C@@H](O)[C@H]1O [ATP]
IC50 (NOD1 [1]): ~0.015 µM
IC50 (NOD2): ~0.06 µM

IC50 (NOD1 [2]; [8]): 0.4 ± 0.08 µM
SMILES: Cn1c(=O)[nH]c(=O)c2c1nc(SCCc1ccccc1)n2Cc1ccccc1 [Compound 1]

IC50 (NOD1 [2]; [8]): 2.5 ± 1.3 µM
SMILES: Cn1c(=O)[nH]c(=O)c2c1nc(CCCSc1ccccc1)n2Cc1ccccc1 [Compound 2]

IC50 (NOD1 [2]; [8]): 4.7 ± 1.4 µM
SMILES: CCCCCCSc1nc2c(c(=O)[nH]c(=O)n2C)n1Cc1ccccc1 [Compound 3]

IC50 (NOD1 [2]; [8]): 8.7 ± 1.5 µM
SMILES: Cn1c(=O)[nH]c(=O)c2c1nc(SCCCc1ccccc1)n2Cc1ccccc1 [Compound 4]

IC50 (NOD1 [2]; [8]): 8.9 ± 1.6 µM
SMILES: Cc1cccc(CSc2nc3c(c(=O)[nH]c(=O)n3C)n2Cc2ccccc2)c1 [Compound 5]

IC50 (NOD1 [2]; [8]): 9.6 ± 2.8 µM
SMILES: C/C=C/Cn1c(SCCc2ccccc2)nc2c1c(=O)[nH]c(=O)n2C [Compound 6]

IC50 (NOD1 [2]; [8]): 37.3 ± 18.1 µM
SMILES: Cn1c(=O)[nH]c(=O)c2c1nc(SCc1ccccc1)n2Cc1ccccc1 [Compound 7]

IC50 (NOD1 [2]; [9]): 0.7 µM
solubility (CLND solubility): 391 µM (≈ 167 µg/mL)
chromatographic logD [3]: 3.24
Papp [4]: 35 ×10⁻⁶ cm/s
HSA binding (human serum albumin): 96.05%
AGP binding (α1-acid glycoprotein): 80.38%
IAM binding [5]: 1.42 log K
SMILES: Cc1nc2ccccc2c(=O)n1-c1ccc(F)c(NS(=O)(=O)c2ccccc2F)c1 [Compound 8]

IC50 (NOD1 [2]; [9]): 0.7 µM
SMILES: Cc1nc2ccccc2c(=O)n1-c1ccc(F)c(NS(=O)(=O)c2ccc(Cl)s2)c1 [Compound 9]
effect on Tri-DAP induced p-JNK, p-p38 and IκBα responses [6]: reduced both phospho-JNK and the weaker phospho-p38 levels while levels of IκBα were increased

IC50 (NOD1 [2]; [8]): 2.2 ± 3.3 µM
SMILES: Cc1nc2ccccc2c(=O)n1-c1ccc(F)c(NS(=O)(=O)c2ccc(F)cc2F)c1 [Compound 10]

IC50 (NOD1 [2]; [8]): 1.1 ± 0.7 µM
SMILES: Cc1ccc(S(=O)(=O)Nc2cc(-n3c(C)nc4ccccc4c3=O)ccc2F)cc1C [Compound 11]

IC50 (NOD1 [2]; [8]): 1.2 ± 0.1 µM
SMILES: Cc1nc2ccccc2c(=O)n1-c1ccc(F)c(NS(=O)(=O)c2cc(Cl)ccc2Cl)c1 [Compound 12]

IC50 (NOD1 [2]; [8]): 2.3 ± 1.7 µM
solubility (CLND solubility): 423 µM (≈ 176 µg/mL)
chromatographic logD [3]: 2.87
Papp [4]: 26 ×10⁻⁶ cm/s
HSA binding (human serum albumin): 96.08%
AGP binding (α1-acid glycoprotein): 81.23%
IAM binding [5]: 1.36 log K
SMILES: Cc1nc2ccccc2c(=O)n1-c1ccc(F)c(NS(=O)(=O)c2cccs2)c1 [Compound 13]

IC50 (NOD1 [2]; [9]): 15.1 µM
SMILES: CCc1ccc(S(=O)(=O)Nc2cccc(-n3c(C)nc4ccccc4c3=O)c2)s1 [Compound 14]

IC50 (NOD1 [2]; [9]): 0.2 µM
IC50 (NOD1 [2]; [8]): 0.19 ± 0.03 µM
SMILES: Cc1ccc(S(=O)(=O)Nc2cccc(C(=O)Nc3nc4ccc([N+](=O)[O-])cc4s3)c2)cc1 [Compound 15]

IC50 (NOD1 [2]; [8]): 0.76 ± 0.1 µM
SMILES: Cc1ccc(S(=O)(=O)Nc2cccc(C(=O)Nc3ccc4nc(C)sc4c3)c2)c(F)c1 [Compound 17]

IC50 (NOD1 [2]; [8]): 1.4 ± 0.3 µM
SMILES: CC(=O)Nc1ccc2nc(NC(=O)c3cccc(NS(=O)(=O)c4ccc(C)cc4)c3)sc2c1 [Compound 18]

IC50 (NOD1 [2]; [8]): 2 ± 0.5 µM
SMILES: N#Cc1ccc(-c2csc(NC(=O)c3cccc(NS(=O)(=O)c4ccc(Cl)cc4)c3)n2)cc1 [Compound 19]

IC50 (NOD1 [2]; [8]): 2.3 ± 0.8 µM
SMILES: COc1ccc(S(=O)(=O)Nc2cccc(C(=O)Nc3ccc4nc(C)sc4c3)c2)cc1 [Compound 20]

IC50 (NOD1 [2]; [8]): 3.7 ± 1.4 µM
solubility (CLND solubility): 46 µM (≈ 19.8 µg/mL)
chromatographic logD [3]: 5.17
Papp [4]: 23 ×10⁻⁶ cm/s
HSA binding (human serum albumin): 98.01%
AGP binding (α1-acid glycoprotein): 87.41%
IAM binding [5]: 2.40 log K
SMILES: O=C(Nc1ccc2c(c1)OCO2)c1cccc(NS(=O)(=O)c2ccc(Cl)cc2)c1 [Compound 21]

IC50 (NOD1 [2]; [8]): 0.1 ± 0.04 µM
SMILES: Cc1nc2ccccc2c(=O)n1-c1ccc(Cl)c(NS(=O)(=O)c2ccc3c(c2)OCCO3)c1 [Compound 23]

IC50 (NOD1 [2]; [8]): 0.2 ± 0.2 µM
SMILES: Cc1ccc(S(=O)(=O)Nc2cc(-n3c(C)nc4ccccc4c3=O)ccc2Cl)cc1 [Compound 24]

IC50 (NOD1 [2]; [8]): 0.5 ± 0.1 µM
SMILES: COc1ccc(Cl)cc1S(=O)(=O)Nc1cc(-n2c(C)nc3ccccc3c2=O)ccc1Cl [Compound 25]

IC50 (NOD1 [2]; [8]): 0.026 µM
SMILES: Cc1nc2ccc(Cl)cc2c(=O)n1-c1ccc(Cl)c(NS(=O)(=O)c2ccccc2F)c1 [Compound 26, N-(2-chloro-5-(6-chloro-2-methyl-4-oxoquinazolin-3(4H)-yl)phenyl)-2-fluorobenzenesulfonamide]

IC50 (NOD1 [2]; [8]): 2.5 ± 1.2 µM
SMILES: Cc1nc2cc(Cl)ccc2c(=O)n1-c1ccc(Cl)c(NS(=O)(=O)c2ccccc2F)c1 [Compound 27, N-(2-chloro-5-(7-chloro-2-methyl-4-oxoquinazolin-3(4H)-yl)phenyl)-2-fluorobenzenesulfonamide]

IC50 (NOD1 [2]; [8]): 3.5 ± 0.5 µM
SMILES: Cc1nc(C)n(-c2ccc(Cl)c(NS(=O)(=O)c3ccccc3F)c2)c(=O)c1C [Compound 28, N-(2-chloro-5-(2,4,5-trimethyl-6-oxopyrimidin-1(6H)-yl)phenyl)-2-fluorobenzenesulfonamide]

IC50 (NOD1 [2]; [8]): 25 ± 17.5 µM
SMILES: Cc1cc(=O)n(-c2ccc(Cl)c(NS(=O)(=O)c3ccccc3F)c2)c(C)n1 [Compound 29, N-(2-chloro-5-(2,4-dimethyl-6-oxopyrimidin-1(6H)-yl)phenyl)-2-fluorobenzenesulfonamide]

SMILES: Cc1ccc(S(=O)(=O)n2c(N)nc3ccccc32)cc1 [ML130]
IC50 (NOD1 [7]): 0.56 µM

SMILES: C/C=C/Cn1c(SCCCc2ccccc2)nc2c1c(=O)[nH]c(=O)n2C [ML146]
IC50 (NOD1 [7]; ref Magnuson et al, 2010): 1.5 µM
